{"source": "patent US6286513A", "about": "“Methods for treating superficial bladder carcinoma” (priority 1998, dated 2001)", "key": {"[1]": {"test": "Blood levels of MMC during high efficacy therapy", "format": "in vivo, patients"}, "[2]": {"test": "Toxicity comparison of high efficacy and customary intravesical MMC therapy (Table 1)", "format": "in vivo, patients"}, "[3]": {"tested_on": "multifocal Ta, T1, Tis tumors", "test": "Recurrence in patients with multifocal tumors (Example 3, FIG. 9)", "format": "in vivo", "description": "Sixty-five of patients from whom 3 or more Ta, T1,or Tis tumors had been removed were treated weekly for six weeks with the high efficacy therapy as described above in example 1 and 52 patients from whom 3 or more Ta, T1, or Tis tumors had been removed were treated weekly for six weeks with standard MMC intravsical therapy as described in example 1. All patients received the follow-up described in example 1."}, "Ta tumors": {"tested_on": "Ta tumors", "test": "Recurrence in patients with Ta tumors (Kaplan-Meier)", "format": "in vivo", "excerpt": "The Kaplan-Meier Curve is a conventional tool used to project treatment outcome such as the % of patients who remain alive or free of disease at a certain time interval. (Martin Bland, Introduction to Medical Statistics (1994) Oxford Press). The Kaplan Meier Curve was used to compare the customary experimental therapy to the high efficacy therapy. When compared to the customary experimental therapy, the high efficacy therapy increased the percentage of all patients who are projected to remain recurrence-freefor longer than 5 years from 20 to 41%. The improvement was similar for patients with T1 tumors which were growing in the deeper bladder tissue layers (i.e. increase from 16% to 44%) and for patients with Ta tumors which were growing in the urothelial surface of the bladder (i.e. increase from 20% to 37%)."}, "[4]": {"test": "Overall bladder wall exposure to MMC: urinary AUC, C^n×T, urine production and pH (Table 3)", "format": "in vivo, patients", "settings": "for Urinary AUC / Urinary C^n × T: mean ± standard deviation; for Urinary C^n × T: n = 1.24", "excerpt": "A commonly used measure of drug exposure for anticancer agent is the product of exposure concentration and duration, or AUC (area under the curve). […] The drug exposure in the urinary bladder can be determined from the drug concentration in the urine and can serve as a measure of exposure to the tumor tissue."}, "[5]": {"settings": "in vitro, previous results; cited from earlier work"}, "[6]": {"tested_on": "low grade tumors (grade I and grade II)", "test": "Recurrence in patients with low grade tumors (Example 5)", "format": "in vivo", "description": "Eighty-one patients from whom low grade tumors (i.e., grade I and grade II) had been removed were treated weekly for six weeks with the high efficacy therapy as described above in example 1 and 64 patients from whom low grade tumors were had been removed were treated weekly for six weeks with the customary experimental therapy as described in example 1. All patients were evaluated as described in example 1. The median time to recurrence was 637 days for patients treated by the high efficacy treatment versus 339 days for patients treated by the customary experimental treatment. The projected 5-year recurrence free value is 35% for the high efficacy treatment and 21% for the customary experimental treatment."}, "[7]": {"tested_on": "large tumors, i.e. tumors >5 cm", "test": "Recurrence in patients with large tumors", "format": "in vivo", "settings": "high efficacy therapy; large tumors >5 cm"}, "[8]": {"tested_on": "high grade tumors (grade III)", "test": "Recurrence in patients with high grade tumors (Example 6)", "format": "in vivo", "description": "Twenty-seven patients from whom high grade tumors (i.e., grade III)had been removed were treated weekly for six weeks with the high efficacy therapy as described above in example 1 and 23 patients from whom high grade tumors had been removed were treated weekly for six weeks with the customary experimental therapy as described in example 1. All patients were evaluated as described in example 1. The median time to recurrence was not reached for patients treated by the high efficacy treatment versus 179 days for patients treated by the customary experimental treatment. The projected 5-year recurrence free value is 52% for the patients receiving the high efficacy treatment and 19% for the customary experimental treatment."}, "[9]": {"settings": "high efficacy vs customary experimental therapy"}, "[10]": {"settings": "customary experimental treatment"}}}
{"smiles": "COC12C(COC(N)=O)C3=C(C(=O)C(C)=C(N)C3=O)N1CC1NC12", "note": "(stereo not shown) [MMC]", "values": [{"measurement": "blood levels of MMC, in most instances", "setting": "[1]", "value": "less than 5 ng/ml"}, {"measurement": "levels of MMC in the blood of the patients, upper bound", "setting": "[1]", "value": "≤ 50", "unit": "ng/mL"}, {"measurement": "Allergy", "setting": "[2]; Customary (n = 96)", "value": "9 % of patients"}, {"measurement": "Any toxicity", "setting": "[2]; Customary (n = 96)", "value": "64 % of patients"}, {"measurement": "Cramp", "setting": "[2]; Customary (n = 96)", "value": "17 % of patients"}, {"measurement": "Cystitis", "setting": "[2]; Customary (n = 96)", "value": "18 % of patients"}, {"measurement": "Dermal", "setting": "[2]; Customary (n = 96)", "value": "10 % of patients"}, {"measurement": "Dysuria", "setting": "[2]; Customary (n = 96)", "value": "19 % of patients"}, {"measurement": "Fatigue", "setting": "[2]; Customary (n = 96)", "value": "20 % of patients"}, {"measurement": "Fever", "setting": "[2]; Customary (n = 96)", "value": "5 % of patients"}, {"measurement": "Hematuria", "setting": "[2]; Customary (n = 96)", "value": "24 % of patients"}, {"measurement": "Leukopenia", "setting": "[2]; Customary (n = 96)", "value": "0 % of patients"}, {"measurement": "Malaise", "setting": "[2]; Customary (n = 96)", "value": "19 % of patients"}, {"measurement": "Nausea", "setting": "[2]; Customary (n = 96)", "value": "9 % of patients"}, {"measurement": "Pain", "setting": "[2]; Customary (n = 96)", "value": "17 % of patients"}, {"measurement": "Thrombocytopenia", "setting": "[2]; Customary (n = 96)", "value": "0 % of patients"}, {"measurement": "Urgency", "setting": "[2]; Customary (n = 96)", "value": "28 % of patients"}, {"measurement": "Urinary frequency", "setting": "[2]; Customary (n = 96)", "value": "33 % of patients"}, {"measurement": "Vomiting", "setting": "[2]; Customary (n = 96)", "value": "5 % of patients"}, {"measurement": "Allergy", "setting": "[2]; High efficacy (n = 104)", "value": "13 % of patients"}, {"measurement": "Any toxicity", "setting": "[2]; High efficacy (n = 104)", "value": "72 % of patients"}, {"measurement": "Cramp", "setting": "[2]; High efficacy (n = 104)", "value": "15 % of patients"}, {"measurement": "Cystitis", "setting": "[2]; High efficacy (n = 104)", "value": "24 % of patients"}, {"measurement": "Dermal", "setting": "[2]; High efficacy (n = 104)", "value": "15 % of patients"}, {"measurement": "Dysuria", "setting": "[2]; High efficacy (n = 104)", "value": "35 % of patients"}, {"measurement": "Fatigue", "setting": "[2]; High efficacy (n = 104)", "value": "19 % of patients"}, {"measurement": "Fever", "setting": "[2]; High efficacy (n = 104)", "value": "5 % of patients"}, {"measurement": "Hematuria", "setting": "[2]; High efficacy (n = 104)", "value": "26 % of patients"}, {"measurement": "Leukopenia", "setting": "[2]; High efficacy (n = 104)", "value": "1 % of patients"}, {"measurement": "Malaise", "setting": "[2]; High efficacy (n = 104)", "value": "18 % of patients"}, {"measurement": "Nausea", "setting": "[2]; High efficacy (n = 104)", "value": "12 % of patients"}, {"measurement": "Pain", "setting": "[2]; High efficacy (n = 104)", "value": "17 % of patients"}, {"measurement": "Thrombocytopenia", "setting": "[2]; High efficacy (n = 104)", "value": "0 % of patients"}, {"measurement": "Urgency", "setting": "[2]; High efficacy (n = 104)", "value": "22 % of patients"}, {"measurement": "Urinary frequency", "setting": "[2]; High efficacy (n = 104)", "value": "26 % of patients"}, {"measurement": "Vomiting", "setting": "[2]; High efficacy (n = 104)", "value": "4 % of patients"}, {"measurement": "bone marrow toxicity", "setting": "[2]; high efficacy therapy", "value": "did not exhibit any signs of bone marrow toxicity"}, {"measurement": "dysuria, frequency and severity", "setting": "[2]; high efficacy therapy", "value": "higher frequency of dysuria. But this toxicity was mild and did not result in termination of treatment"}, {"measurement": "other toxicities (dysuria, cystitis, hematuria, cramps), severity", "setting": "[2]; high efficacy therapy, a small number of patients", "value": "mild"}, {"measurement": "projected 5-year recurrence free rate", "setting": "[3]; customary experimental therapy, multifocal tumors", "value": 17, "unit": "%"}, {"measurement": "projected 5-year recurrence free rate", "setting": "[3]; high efficacy therapy, multifocal tumors", "value": 32, "unit": "%"}, {"measurement": "delaying and preventing tumor recurrence, vs customary therapy", "setting": "[3]; high efficacy therapy, multiple tumors", "value": "more effective"}, {"measurement": "median time to tumor recurrence", "setting": "[3]; standard treatment (so in the source), multifocal tumors", "value": 488, "unit": "days"}, {"measurement": "percentage of patients projected to remain recurrence-free for longer than 5 years", "setting": "Ta tumors; customary experimental therapy", "value": 20, "unit": "%"}, {"measurement": "percentage of patients projected to remain recurrence-free for longer than 5 years", "setting": "Ta tumors; high efficacy therapy", "value": 37, "unit": "%"}, {"measurement": "Urinary AUC", "setting": "[4]; customary experimental therapy", "value": "24.2 ± 14.7", "unit": "mg·min/mL"}, {"measurement": "Urinary C^n × T", "setting": "[4]; customary experimental therapy", "value": "97.2 ± 77.08", "unit": "mg^n.min/ml"}, {"measurement": "Urinary AUC", "setting": "[4]; high efficacy therapy", "value": "57.6 ± 37.2", "unit": "mg·min/mL"}, {"measurement": "Urinary C^n × T", "setting": "[4]; high efficacy therapy", "value": "291 ± 283", "unit": "mg^n.min/ml"}, {"measurement": "average drug exposure measured as AUC, high efficacy relative to customary", "setting": "[4]; [9]", "value": 2, "unit": "times"}, {"measurement": "average drug exposure measured as C^n×T, high efficacy relative to customary", "setting": "[4]; [9]", "value": 2.4, "unit": "times"}, {"measurement": "relative importance of drug concentration and treatment duration", "setting": "[5]", "value": "the drug concentration is more important than treatment duration"}, {"measurement": "median time to recurrence", "setting": "[6]; [10]", "value": 339, "unit": "days"}, {"measurement": "projected 5-year recurrence free value", "setting": "[6]; [10]", "value": 21, "unit": "%"}, {"measurement": "median time to recurrence", "setting": "[6]; high efficacy treatment", "value": 637, "unit": "days"}, {"measurement": "projected 5-year recurrence free value", "setting": "[6]; high efficacy treatment", "value": 35, "unit": "%"}, {"measurement": "delaying and preventing tumor recurrence, vs customary therapy", "setting": "[7]", "value": "more effective"}, {"measurement": "median time to recurrence", "setting": "[8]; [10]", "value": 179, "unit": "days"}, {"measurement": "projected 5-year recurrence free value", "setting": "[8]; [10]", "value": 19, "unit": "%"}, {"measurement": "median time to recurrence", "setting": "[8]; high efficacy treatment", "value": "not reached"}, {"measurement": "projected 5-year recurrence free value", "setting": "[8]; high efficacy treatment", "value": 52, "unit": "%"}]}
